Reference: patent publication EP0999856B1, “RADIOPHARMACEUTICALS FOR IMAGING INFECTION AND INFLAMMATION” (Bristol-Myers Squibb Pharma Company, priority 1996, dated 1998)

Molecular target: PMN LTB4 receptor (Homo sapiens, UniProt Q15722)
Assay: LTB4 Human Neutrophil (PMN) Binding Assay
Description: Heparinized blood was placed on a ficol gradient followed by its sedimentation with dextran. […] The PMN solution was adjusted to achieve a concentration of 8 X 10^6 PMN/ml. […] Very briefly, the assay was performed as follows; [3H]LTB4 (1 nM) and test agent were placed into a 96 well microplate with filters (0.65 µm pore size). PMN solution (8 x 10^6/ml) was added and the microplate incubated for 10 min at 4° C. The microplate was then placed on Millipore filtration system; the wells washed with cold saline (3 x) and dried. The filters were removed from the microplate; placed into scintillation fluid and the concentration of [3H]LTB4 determined.

Chain of PMN LTB4 receptor (Q15722 whole entry): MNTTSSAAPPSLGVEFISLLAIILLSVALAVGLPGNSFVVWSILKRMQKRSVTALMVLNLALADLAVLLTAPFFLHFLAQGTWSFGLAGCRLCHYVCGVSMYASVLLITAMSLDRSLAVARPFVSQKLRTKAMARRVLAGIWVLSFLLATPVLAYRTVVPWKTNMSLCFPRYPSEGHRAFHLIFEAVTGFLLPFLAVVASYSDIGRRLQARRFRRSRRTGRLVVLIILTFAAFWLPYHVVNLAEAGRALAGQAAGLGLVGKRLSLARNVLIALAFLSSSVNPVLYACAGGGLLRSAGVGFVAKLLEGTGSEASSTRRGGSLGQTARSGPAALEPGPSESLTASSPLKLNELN

Ki: 8 nM
SMILES: CCc1cc(-c2ccc(F)cc2)c(O)cc1OCCCCC(C)(C)CNC(=O)c1ccc(NN=Cc2ccccc2)nc1 [IIa]
